Data taken from paper PMC5063977 (The Journal of Biological Chemistry, 2016).

Molecular target: T1, RAMP3-CLR (AM2 receptor) (Homo sapiens, UniProt O60896+Q16602)
T1 construct: FLAG; expressed in transfected cells; host or cells: HEK-293 or HEK-293S cells, transient transfection, 1:1 RAMP:CLR
Assay: (Ca^2+)i mobilization, HEK-293S cells, RAMP3 + CLR
Assay type: cell-based
Details: HEK293S, percentage of maximal (Ca^2+)i release with 10 μM ionomycin, mean ± S.E., n = 5
Procedure: HEK-293 cells, provided by Dr. Jügen Müller (University of Aston), were cultured in DMEM supplemented with 10% heat-inactivated FBS and kept at 37 °C in a humidified 95% air, 5% CO2 incubator. HEK-293S cells (a gift from AstraZeneca) were cultured in DMEM supplemented with 8% heat-inactivated FBS and kept at 37 °C in a humidified 95% air, 5% CO2 incubator. HEK-293 cells were transfected with FuGENE 6 (Roche Applied Science) in accordance with the manufacturer's instructions using a 1:3 (w:v) DNA:FuGENE ratio and a 1:1 ratio of RAMP to CLR. HEK-293S cells were seeded into 96-well poly-D-lysine-coated plates at a density of 15,000 cells/well (determined using a Countess^TM cell counter, Invitrogen) 1 day prior to transfection. HEK-293S cells were transiently transfected as described previously ([38]) using a 1:1 ratio of RAMP to CLR. The transfected cell lines were grown for 24–48 h prior to assaying.
Transfected HEK-293 cells were grown to confluence in black, clear bottomed, 96-well plates. […] Ligands were added robotically using a Mithras LB 940 multimode microplate reader in the range of 10 pM to 1 μM, and fluorescence was determined immediately post-injection with an excitation wavelength set to 485 nm and an emission wavelength set to 535 nm. […] Peak magnitude was calculated using five-point smoothing followed by correction against background fluorescence. […]

T1 sequence (Q16602 23-461): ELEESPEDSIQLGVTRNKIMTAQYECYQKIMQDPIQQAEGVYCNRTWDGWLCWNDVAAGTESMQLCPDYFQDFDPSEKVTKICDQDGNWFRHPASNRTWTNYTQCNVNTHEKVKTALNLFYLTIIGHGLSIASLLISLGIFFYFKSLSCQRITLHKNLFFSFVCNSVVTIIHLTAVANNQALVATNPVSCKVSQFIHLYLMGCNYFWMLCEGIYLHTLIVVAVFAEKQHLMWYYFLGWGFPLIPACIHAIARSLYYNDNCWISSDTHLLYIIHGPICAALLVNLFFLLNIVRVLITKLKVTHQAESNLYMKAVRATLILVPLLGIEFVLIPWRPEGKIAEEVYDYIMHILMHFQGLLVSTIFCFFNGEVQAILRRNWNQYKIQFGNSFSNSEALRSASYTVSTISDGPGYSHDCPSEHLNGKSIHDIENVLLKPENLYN
T1 sequence (O60896 24-148): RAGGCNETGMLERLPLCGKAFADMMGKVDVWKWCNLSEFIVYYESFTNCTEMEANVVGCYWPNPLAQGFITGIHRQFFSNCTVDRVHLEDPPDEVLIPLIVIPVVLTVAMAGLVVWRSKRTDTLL

Compound | Emax
CSCC[C@H](NC(=O)[C@H](CC(C)C)NC(=O)[C@H](CCC(N)=O)NC(=O)[C@H](Cc1c[nH]c2ccccc12)NC(=O)[C@H](CC(C)C)NC(=O)[C@H](CCCNC(=N)N)NC(=O)[C@H](Cc1c[nH]cn1)NC(=O)[C@H](CO)NC(=O)[C@H](CC(C)C)NC(=O)[C@H](CC(N)=O)NC(=O)[C@H](CCC(N)=O)NC(=O)[C@@H](NC(=O)[C@H](CCC(N)=O)NC(=O)[C@@H]1CSSC[C@H](NC(=O)CNC(=O)[C@@H](NC(=O)[C@H](CCCNC(=N)N)NC(=O)[C@H](CC(C)C)NC(=O)[C@H](CC(C)C)NC(=O)[C@H](CCC(N)=O)NC(=O)[C@H](C)NC(=O)[C@H](CCC(N)=O)NC(=O)[C@@H](N)[C@@H](C)O)C(C)C)C(=O)N[C@@H](C(C)C)C(=O)N[C@@H](CC(C)C)C(=O)NCC(=O)N[C@@H]([C@@H](C)O)C(=O)N1)C(C)C)C(=O)NCC(=O)N1CCC[C@H]1C(=O)N[C@@H](C)C(=O)NCC(=O)N[C@@H](CCCNC(=N)N)C(=O)N[C@@H](CCC(N)=O)C(=O)N[C@@H](CC(=O)O)C(=O)N[C@@H](CO)C(=O)N[C@@H](C)C(=O)N1CCC[C@H]1C(=O)N[C@H](C(=O)N[C@@H](CC(=O)O)C(=O)N1CCC[C@H]1C(=O)N[C@@H](CO)C(=O)N[C@@H](CO)C(=O)N1CCC[C@H]1C(=O)N[C@@H](Cc1c[nH]cn1)C(=O)N[C@@H](CO)C(=O)N[C@@H](Cc1ccc(O)cc1)C(N)=O)C(C)C [AM2, adrenomedullin 2] | 20.1 ± 4.3%
CC[C@H](C)[C@H](NC(=O)[C@H](CCC(N)=O)NC(=O)[C@H](Cc1c[nH]cn1)NC(=O)[C@H](C)NC(=O)[C@H](CC(C)C)NC(=O)[C@H](CCCCN)NC(=O)[C@H](CCC(N)=O)NC(=O)[C@@H](NC(=O)[C@@H](NC(=O)[C@@H]1CSSC[C@H](NC(=O)CNC(=O)[C@H](Cc2ccccc2)NC(=O)[C@H](CO)NC(=O)[C@H](CCCNC(=N)N)NC(=O)[C@H](CC(C)C)NC(=O)CNC(=O)[C@H](CCC(N)=O)NC(=O)[C@H](Cc2ccccc2)NC(=O)[C@H](CC(N)=O)NC(=O)[C@H](CC(N)=O)NC(=O)[C@H](CCSC)NC(=O)[C@H](CO)NC(=O)[C@H](CCC(N)=O)NC(=O)[C@H](CCCNC(=N)N)NC(=O)[C@@H](N)Cc2ccc(O)cc2)C(=O)N[C@@H](CCCNC(=N)N)C(=O)N[C@@H](Cc2ccccc2)C(=O)NCC(=O)N[C@@H]([C@@H](C)O)C(=O)N1)[C@@H](C)O)C(C)C)C(=O)N[C@@H](Cc1ccc(O)cc1)C(=O)N[C@@H](CCC(N)=O)C(=O)N[C@@H](Cc1ccccc1)C(=O)N[C@H](C(=O)N[C@@H](CC(=O)O)C(=O)N[C@@H](CCCCN)C(=O)N[C@@H](CC(=O)O)C(=O)N[C@@H](CCCCN)C(=O)N[C@@H](CC(=O)O)C(=O)N[C@@H](CC(N)=O)C(=O)N[C@H](C(=O)N[C@@H](C)C(=O)N1CCC[C@H]1C(=O)N[C@@H](CCCNC(=N)N)C(=O)N[C@@H](CO)C(=O)N[C@@H](CCCCN)C(=O)N[C@H](C(=O)N[C@@H](CO)C(=O)N1CCC[C@H]1C(=O)N[C@@H](CCC(N)=O)C(=O)NCC(=O)N[C@@H](Cc1ccc(O)cc1)C(N)=O)[C@@H](C)CC)C(C)C)[C@@H](C)O [AM, adrenomedullin] | 44.3 ± 3.2%
